From patent publication US9993449B2, “(S)-3-amino-4-(difluoromethylenyl)cyclopent-1-ene-1-carboxylic acid, and related compounds as GABA aminotransferase inactivators for the treatment of epilepsy, addiction and hepatocellular carcinoma” (NORTHWESTERN UNIVERSITY, priority 2015, dated 2018)
Entries after “also recorded” stand apart in the source; their conditions may differ. Structures can show the parent of a compound that is named as a salt.

Columns and labels:
CYP3A = CYP3A inhibition (HLM, midazolam and testosterone substrates); assay type: in vitro ADME, human; conditions: 10 μM, 10 min at 37° C.
Experimental: (§1) Inhibition of Microsomal Cytochromes P450. The experiments were performed by Eurofins Panlabs (Redmond, Wash. 98052, USA). CYP1A inhibition (HLM, phenacetin substrate), CYP2B6 inhibition (HLM, bupropion substrate), CYP2C8 inhibition (HLM, paclitaxel substrate), CYP2C9 inhibition (HLM, diclofenac substrate), CYP2C19 inhibition (HLM, omeprazole substrate), CYP2D6 inhibition (HLM, dextromethorphan substrate), and CYP3A inhibition (HLM, midazolam and testosterone substrates) were tested. The test concentration was 10 μM. The incubation time was 10 min at 37° C. The detection method was by HPLC-MS/MS. The experiments were duplicated, and the % inhibition of the control values was averaged (FIG. 8).

[1] = biological target: alanine aminotransferase (Ala-AT); experiment: Inhibition of alanine aminotransferase; assay type: biochemical; conditions: reversible inhibition
Source text: Inhibition of Alanine Aminotransferase by 1. The assay was identical to that with aspartate aminotransferase except L-alanine was used as the substrate and lactate dehydrogenase was the enzyme (FIG. 5).

Plasma protein binding = assay type: in vitro ADME
CYP2C9 = biological target: T1, CYP2C9 (Homo sapiens, UniProt P11712); experiment: CYP2C9 inhibition (HLM, diclofenac substrate); assay type: in vitro ADME; conditions: 10 μM, 10 min at 37° C.
T1 construct: tissue Eurofins Panlabs; host or cells: human liver microsomes
Experimental: as §1

[2] = biological target: aspartate aminotransferase (Asp-AT); experiment: Inhibition of aspartate aminotransferase; assay type: biochemical; conditions: reversible inhibition
Experimental: Inhibition of Aspartate Aminotransferase by 1. Microtiter plate wells were loaded with 90 μL of an assay mixture containing 100 mM potassium phosphate at pH 7.4, 5.55 mM α-ketoglutarate, 1.11 mM NADH, 5.55 mM L-aspartate, 11.1 units of malic dehydrogenase, and various concentrations of 1. After incubation of the mixture at room temperature for a few min, 10 μL of Asp-AT (3.0 units/mL in 100 mM potassium phosphate at pH 7.4) was added. The plate was shaken at room temperature for 1 min, and the absorbance was measured at 340 nm every 6 s for 90 min. All assays were performed in duplicate (FIG. 4).

[3] = biological target: T2, ornithine aminotransferase (OAT) (Homo sapiens, UniProt P04181); conditions: read-out: KI for inactivation of OAT
T2 sequence (P04181 26-439): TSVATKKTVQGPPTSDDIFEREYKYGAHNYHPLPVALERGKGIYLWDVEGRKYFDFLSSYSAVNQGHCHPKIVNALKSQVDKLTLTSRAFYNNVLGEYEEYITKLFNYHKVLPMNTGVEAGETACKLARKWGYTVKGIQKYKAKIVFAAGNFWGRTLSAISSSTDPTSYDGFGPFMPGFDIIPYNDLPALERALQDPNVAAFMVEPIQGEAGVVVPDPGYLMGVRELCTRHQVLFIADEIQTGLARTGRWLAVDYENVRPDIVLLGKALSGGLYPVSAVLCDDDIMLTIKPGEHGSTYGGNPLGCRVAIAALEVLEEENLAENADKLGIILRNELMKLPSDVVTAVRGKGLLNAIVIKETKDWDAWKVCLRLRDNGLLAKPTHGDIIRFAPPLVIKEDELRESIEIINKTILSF
Experimental: All assays were performed in duplicate, and the remaining OAT activity at each preincubation time at each inhibitor concentration was averaged. The natural logarithm of the percentage of the remaining OAT activity was plotted against the preincubation time at each inhibitor concentration to obtain the kobs (slope) value for each concentration. The kobs is the rate constant describing the inactivation at each inhibitor concentration. kobs is replotted against the inhibitor concentration using nonlinear regression analysis (GraphPad Prism 6™; GraphPad Software Inc.). KI and kinact were estimated from equation (3):

[4] = tested on: glucose metabolism in the hippocampus; experiment: MicroPET imaging with 18FDG: cocaine-induced increases in glucose metabolism in freely moving rats; assay type: in vivo, rat; conditions: 18FDG microPET, statistical parametric map, p<0.00001, Hydrochloride
Source text: In addition to labeled raclopride studies, [^18F]-2′-fluoro-2′-deoxy-D-glucose (^18FDG) and microPET were also used to examine the regional effects of 1 on cocaine-induced increases in glucose metabolism. ^18FDG is an analogue of glucose that gets taken up into neurons (or any cells in the human body) just like glucose. However, after ^18FDG is phosphorylated, the corresponding 6′-phosphate cannot be further metabolized in the glycolytic pathway and remains in cells. Consequently, human PET studies have used ^18 FDG for decades to map the brain. […] When a human or a rat receives a psychostimulant like cocaine, dopamine floods the synapse, causing post-synaptic neurons to fire frantically. Because this neuronal firing requires energy in the form of glucose, the result is that brain glucose metabolism increases in specific brain regions. The effect of 1 on cocaine-induced increases in glucose metabolism in freely moving rats was determined using statistical parametric mapping, in which all of the images from the cocaine-only animals were added together and then compared to the images obtained from the same animals that received 1 and cocaine. A statistical threshold (p<0.00001) was set, and a statistical parametric map, an image showing all the pixels that were statistically different between the two conditions, was generated and then overlaid on an MRI of the rat brain (FIG. 11). […]

CYP2C19 = biological target: T3, CYP2C19 (Homo sapiens, UniProt P33261); experiment: CYP2C19 inhibition (HLM, omeprazole substrate); assay type: in vitro ADME; conditions: 10 μM, 10 min at 37° C.
T3 construct: tissue Eurofins Panlabs; host or cells: human liver microsomes
Experimental: as §1

CYP2C8 = biological target: T4, CYP2C8 (Homo sapiens, UniProt P10632); experiment: CYP2C8 inhibition (HLM, paclitaxel substrate); assay type: in vitro ADME; conditions: 10 μM, 10 min at 37° C.
T4 construct: tissue Eurofins Panlabs; host or cells: human liver microsomes
T4 sequence (P10632 1-490): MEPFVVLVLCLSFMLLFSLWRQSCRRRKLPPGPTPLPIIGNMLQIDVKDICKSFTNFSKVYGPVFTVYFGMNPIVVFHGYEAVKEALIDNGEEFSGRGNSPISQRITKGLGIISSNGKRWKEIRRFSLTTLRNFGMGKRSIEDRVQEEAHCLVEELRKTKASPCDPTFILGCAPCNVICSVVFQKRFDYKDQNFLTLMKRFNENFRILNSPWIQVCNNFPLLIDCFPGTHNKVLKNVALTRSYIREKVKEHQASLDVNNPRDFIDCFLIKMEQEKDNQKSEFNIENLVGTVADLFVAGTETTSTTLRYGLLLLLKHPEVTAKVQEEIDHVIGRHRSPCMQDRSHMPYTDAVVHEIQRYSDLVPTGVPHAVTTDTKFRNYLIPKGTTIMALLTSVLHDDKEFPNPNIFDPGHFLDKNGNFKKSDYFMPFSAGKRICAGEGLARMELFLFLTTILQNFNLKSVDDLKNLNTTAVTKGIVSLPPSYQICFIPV
Experimental: as §1

T1 sequence (P11712 whole entry): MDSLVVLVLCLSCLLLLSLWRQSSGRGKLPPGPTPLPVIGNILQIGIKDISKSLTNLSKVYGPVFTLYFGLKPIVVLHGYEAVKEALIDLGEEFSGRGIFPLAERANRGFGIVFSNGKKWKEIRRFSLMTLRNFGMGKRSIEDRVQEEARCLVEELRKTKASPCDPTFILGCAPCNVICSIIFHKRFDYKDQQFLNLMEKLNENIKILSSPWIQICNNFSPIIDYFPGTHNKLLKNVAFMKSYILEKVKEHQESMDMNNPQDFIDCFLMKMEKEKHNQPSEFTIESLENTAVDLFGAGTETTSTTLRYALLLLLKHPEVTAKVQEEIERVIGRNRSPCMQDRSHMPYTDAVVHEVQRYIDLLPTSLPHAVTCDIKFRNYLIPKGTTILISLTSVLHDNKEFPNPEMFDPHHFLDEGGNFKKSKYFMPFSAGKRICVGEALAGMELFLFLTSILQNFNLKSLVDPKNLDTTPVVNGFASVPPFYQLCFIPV
T3 sequence (P33261 whole entry): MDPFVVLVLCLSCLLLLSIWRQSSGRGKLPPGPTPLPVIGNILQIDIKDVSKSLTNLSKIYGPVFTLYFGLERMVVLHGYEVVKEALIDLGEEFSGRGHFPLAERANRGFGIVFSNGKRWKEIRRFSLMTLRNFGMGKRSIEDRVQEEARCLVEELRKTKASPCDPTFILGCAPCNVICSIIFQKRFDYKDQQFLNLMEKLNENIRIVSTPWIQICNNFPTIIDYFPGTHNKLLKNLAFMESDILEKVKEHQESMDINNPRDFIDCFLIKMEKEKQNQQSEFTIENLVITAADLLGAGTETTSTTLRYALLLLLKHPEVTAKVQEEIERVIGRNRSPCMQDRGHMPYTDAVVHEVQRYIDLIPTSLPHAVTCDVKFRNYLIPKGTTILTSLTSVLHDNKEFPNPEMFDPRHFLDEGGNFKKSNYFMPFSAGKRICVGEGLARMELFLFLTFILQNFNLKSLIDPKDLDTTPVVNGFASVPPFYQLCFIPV

Structure (SMILES): N[C@H]1C=C(C(=O)O)CC1=C(F)F [Compound 1, (S)-3-Amino-4-(difluoromethylenyl)cyclopent-1-ene-1-carboxylic acid Hydrochloride]
- inhibition or induction of CYP 3A (CYP3A): does not inhibit or induce
- IC50 [1]: > 4000 µM
- fraction unbound (Plasma protein binding): 0.73
- inhibition or induction of CYP 2C9 (CYP2C9): does not inhibit or induce
- IC50 [2]: > 4000 µM
- KI (inactivation) [3]: 3.3 µM
- cocaine-induced activation (metabolic demand) in the hippocampus [4]: attenuated; also recorded: all gone
- inhibition or induction of CYP 2C19 (CYP2C19): does not inhibit or induce
- inhibition or induction of CYP 2C8 (CYP2C8): does not inhibit or induce
